Experimental data published in patent publication US20230391760A1, “HETEROCYCLIC GLP-1 AGONISTS” (Gasherbrum Bio, Inc., priority 2020, published 2023).

Target: GLP-1 Receptor (Homo sapiens, UniProt P43220)
Assay: GLP-1R agonist cAMP stimulation assay (HEK293/GLP1R/CRE-LUC cells, cAMP dynamic 2 Kit)
Type: cell-based
Settings: HEK293/CRE-Luc cell line stably expressing the GLP-1 Receptor, 30 min at 37° C.
Protocol: Activation of GLP-1 receptor is known to stimulate cyclic AMP (cAMP) production in cells which indicates primary coupling to the Gαs subunit of the G protein heterotrimeric complex. […] To optimize functional activity directed toward Gαs coupling, a HEK293/CRE-Luc cell line developed by HDB stably expressing the GLP-1 Receptor was used. 200×concentration of compound working solutions were prepared (Agilent Technologies Bravo) with 1/2 log serial dilution in 384-well Echo LDV plate (Labcyte, Cat #LP-0200). 50 nL/well 200× concentration of compound working solutions were moved to 384-well white low volume plate (Greiner,Cat #784075) using Labcyte ECHO550. 1×10^5 cells/mL HEK293/GLP1R/CRE-LUC(HD Biosciences) cell suspensions prepared with assay buffer[DPBS containing 0.5 mM IBMX(Sigma, Cat #15879) and 0.1% BSA (GENVIEW, Cat #FA016-100 g)], 10 uL cell suspensions were added to each well of previous generated assay plate which already contains 50 nl compound at 200×concentration using ThermoFisher Multidrop Combi (1000 cells/well). Seal the plate and incubate at 37° C. with 5% CO2 for 30 min. After incubation the cAMP assay signal was generated using cAMP dynamic 2 Kit (Cisbio). 5 μL cAMP-d2 working solution was added to each well, followed with 5 μL Anti-cAMP antibody-cryptate working solution added to each well using ThermoFisher Multidrop Combi. Incubate at room temperature for 1 hour protected from light.

Sequence of GLP-1 Receptor (P43220 24-463, species assumed): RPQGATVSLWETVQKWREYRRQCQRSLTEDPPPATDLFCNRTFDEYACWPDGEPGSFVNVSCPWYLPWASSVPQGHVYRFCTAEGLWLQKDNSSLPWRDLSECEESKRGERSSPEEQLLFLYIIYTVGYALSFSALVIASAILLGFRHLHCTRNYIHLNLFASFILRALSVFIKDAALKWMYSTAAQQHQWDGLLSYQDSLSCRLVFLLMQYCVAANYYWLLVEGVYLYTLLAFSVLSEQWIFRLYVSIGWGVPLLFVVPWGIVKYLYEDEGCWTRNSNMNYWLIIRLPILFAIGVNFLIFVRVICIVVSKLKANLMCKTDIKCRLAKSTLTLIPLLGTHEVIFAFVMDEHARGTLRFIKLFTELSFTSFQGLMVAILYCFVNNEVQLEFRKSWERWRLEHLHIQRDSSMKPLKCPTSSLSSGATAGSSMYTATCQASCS

## Fc1cc(Cl)ccc1COc1cccc(C2CCN(Cc3nc4cc(-c5nnc[nH]5)ncc4n3C[C@@H]3CCO3)CC2)n1 [Compound 436a, 2-[(4-chloro-2-fluorophenyl)methoxy]-6-{1-[(3-{[(2S)-oxetan-2-yl]methyl}-6-(4H-1,2,4-triazol-3-yl)-3H-imidazo[4,5-c]pyridin-2-yl)methyl]piperidin-4-yl}pyridine]
  EC50: 0.91 nM

## Cc1nnc(-c2cc3nc(CN4CCC(c5cccc6c5O[C@@](C)(c5ccc(Cl)cc5F)O6)CC4)n(C[C@@H]4CCO4)c3cn2)[nH]1 [Compound 289a, 4-[(2S)-2-(4-chloro-2-fluorophenyl)-2-methyl-2H-1,3-benzodioxol-4-yl]-1-{[6-(5-methyl-4H-1,2,4-triazol-3-yl)-3-{[(2S)-oxetan-2-yl]methyl}-3H-imidazo[4,5-c]pyridin-2-yl]methyl}piperidine]
  EC50: 0.0051 nM

## O=C(Nc1ccc2c(c1)nc(CN1CCC(c3cccc(OCc4ccc(Cl)cc4F)n3)CC1)n2C[C@@H]1CCO1)c1cnc2ccccn12 [Compound 181a, N-{2-[(4-{6-[(4-chloro-2-fluorophenyl)methoxy]pyridin-2-yl}piperidin-1-yl)methyl]-1-{[(2S)-oxetan-2-yl]methyl}-1H-1,3-benzodiazol-5-yl}imidazo[1,2-a]pyridine-3-carboxamide]
  EC50: 0.31 nM

## CC1(c2ccc(Cl)cc2F)Oc2cccc(C3CCN(Cc4nc5cc(-c6nnc(C(F)(F)F)[nH]6)cnc5n4C[C@@H]4CCO4)CC3)c2O1 (single isomer, unassigned) [Compound 224c]
  EC50: 0.014 nM

## CC1(c2ccc(Cl)cc2F)Oc2cccc(C3CCN(Cc4nc5cc(-c6nnc(C(F)(F)F)[nH]6)ccc5n4C[C@@H]4CCO4)CC3)c2O1 (single isomer, unassigned) [Compound 229c]
  EC50: 0.04 nM

## Fc1cc(Cl)ccc1COc1nc(N2CCN(Cc3nc4cc(-c5nnc(C(F)(F)F)[nH]5)cnc4n3C[C@@H]3CCO3)CC2)ncc1F [Compound 511a, 4-[(4-chloro-2-fluorophenyl)methoxy]-5-fluoro-2-{4-[(3-{[(2S)-oxetan-2-yl]methyl}-6-[5-(trifluoromethyl)-4H-1,2,4-triazol-3-yl]-3H-imidazo[4,5-b]pyridin-2-yl)methyl]piperazin-1-yl}pyrimidine]
  EC50: 0.079 nM

## C[C@H]1CN(c2ncc(F)c(OCc3ccc(Cl)cc3F)n2)CCN1Cc1nc2cc(-c3nnc(C(F)(F)F)[nH]3)ncc2n1C[C@@H]1CCO1 [Compound 489a, 4-[(4-chloro-2-fluorophenyl)methoxy]-5-fluoro-2-[(3S)-3-methyl-4-[(3-{[(2S)-oxetan-2-yl]methyl}-6-[5-(trifluoromethyl)-4H-1,2,4-triazol-3-yl]-3H-imidazo[4,5-c]pyridin-2-yl)methyl]piperazin-1-yl]pyrimidine]
  EC50: 0.087 nM

## CC1(c2ccc(Cl)cc2)Oc2cccc(C3=CCN(Cc4nc5cc(-c6nnc(C(F)(F)F)[nH]6)ccc5n4CC4(C#N)CC4)CC3)c2O1 (stereo not drawn) [Compound 413, 1-{[2-({4-[2-(4-chlorophenyl)-2-methyl-2H-1,3-benzodioxol-4-yl]-1,2,3,6-tetrahydropyridin-1-yl}methyl)-5-[5-(trifluoromethyl)-4H-1,2,4-triazol-3-yl]-1H-1,3-benzodiazol-1-yl]methyl}cyclopropane-1-carbonitrile]
  EC50: 0.6 nM

## CO[C@H](C)Cn1c(CN2CCC(c3cccc4c3O[C@@](C)(c3ccc(Cl)cc3F)O4)CC2)nc2cc(-c3nnc(C(F)(F)F)[nH]3)ncc21 [Compound 418a, 4-[(2S)-2-(4-chloro-2-fluorophenyl)-2-methyl-2H-1,3-benzodioxol-4-yl]-1-({3-[(2R)-2-methoxypropyl]-6-[5-(trifluoromethyl)-4H-1,2,4-triazol-3-yl]-3H-imidazo[4,5-c]pyridin-2-yl}methyl)piperidine]
  EC50: 0.095 nM

## O=C(O)c1ccc2c(c1)nc(CN1CCC(c3cccc(OCc4ccc(Cl)cc4F)n3)CC1)n2C[C@@H]1CCO1 [Compound 213a, 2-[(4-{6-[(4-chloro-2-fluorophenyl)methoxy]pyridin-2-yl}piperidin-1-yl)methyl]-1-{[(2S)-oxetan-2-yl]methyl}-1H-1,3-benzodiazole-5-carboxylic acid]
  EC50: 0.83 nM

## C[C@]1(c2ccc(C#N)cc2F)Oc2cccc(C3CCN(Cc4nc5cc(-c6n[nH]c(C(F)(F)F)n6)ncc5n4C[C@@H]4CCO4)CC3)c2O1 [Compound 342a, 3-fluoro-4-[(2S)-2-methyl-4-{1-[(3-{[(2S)-oxetan-2-yl]methyl}-6-[5-(trifluoromethyl)-4H-1,2,4-triazol-3-yl]-3H-imidazo[4,5-c]pyridin-2-yl)methyl]piperidin-4-yl}-2H-1,3-benzodioxol-2-yl]benzonitrile]
  EC50: 0.0064 nM

## Fc1cc(Cl)ccc1COc1cc(C2=CCN(Cc3nc4cc(-c5nnc(C(F)(F)F)[nH]5)ncc4n3C[C@@H]3CCO3)CC2)ccc1F [Compound 297a, 4-{3-[(4-chloro-2-fluorophenyl)methoxy]-4-fluorophenyl}-1-[(3-{[(2S)-oxetan-2-yl]methyl}-6-[5-(trifluoromethyl)-4H-1,2,4-triazol-3-yl]-3H-imidazo[4,5-c]pyridin-2-yl)methyl]-1,2,3,6-tetrahydropyridine]
  EC50: 0.098 nM

## CC1(c2ccc(Cl)cc2F)Oc2cccc(C3CCN(Cc4nc5cc(-c6nnc(S(C)(=O)=O)[nH]6)ccc5n4C[C@@H]4CCO4)CC3)c2O1 (stereo partly drawn) [Compound 253a, 2-({4-[2-(4-chloro-2-fluorophenyl)-2-methyl-2H-1,3-benzodioxol-4-yl]piperidin-1-yl}methyl)-5-(5-methanesulfonyl-4H-1,2,4-triazol-3-yl)-1-{[(2S)-oxetan-2-yl]methyl}-1H-1,3-benzodiazole]
  EC50: 0.65 nM

## Cc1nnc(-c2cc3nc(CN4CCC(c5cccc6c5OC(c5ccc(Cl)cc5F)CO6)CC4)n(C[C@@H]4CCO4)c3cn2)[nH]1 (stereo partly drawn) [Compound 468a, 4-[3-(4-chloro-2-fluorophenyl)-2,3-dihydro-1,4-benzodioxin-5-yl]-1-{[6-(5-methyl-4H-1,2,4-triazol-3-yl)-3-{[(2S)-oxetan-2-yl]methyl}-3H-imidazo[4,5-c]pyridin-2-yl]methyl}piperidine]
  EC50: 0.53 nM

## C[C@]1(c2ccc(Cl)cc2F)Oc2cccc(C3CCN(Cc4nc5cc(-c6noc(=O)[nH]6)cnc5n4C[C@@H]4CCOC4)CC3)c2O1 [Compound 398a, 3-[2-({4-[(2S)-2-(4-chloro-2-fluorophenyl)-2-methyl-2H-1,3-benzodioxol-4-yl]piperidin-1-yl}methyl)-3-{[(3S)-oxolan-3-yl]methyl}-3H-imidazo[4,5-b]pyridin-6-yl]-4,5-dihydro-1,2,4-oxadiazol-5-one]
  EC50: 4.3 nM

## C[C@]1(c2ccc(Cl)cc2F)Oc2cccc(C3CCN(Cc4nc5cc(-c6nnc[nH]6)ncc5n4C[C@@H]4CCO4)CC3)c2O1 [Compound 440a, 4-[(2S)-2-(4-chloro-2-fluorophenyl)-2-methyl-2H-1,3-benzodioxol-4-yl]-1-[(3-{[(2S)-oxetan-2-yl]methyl}-6-(4H-1,2,4-triazol-3-yl)-3H-imidazo[4,5-c]pyridin-2-yl)methyl]piperidine]
  EC50: 0.04 nM

## CC1(c2ccc(Cl)cc2F)Oc2cccc(C3CCN(Cc4nc5cc(-c6nnc(C(F)(F)F)[nH]6)cnc5n4C[C@H]4CCCO4)CC3)c2O1 (stereo partly drawn) [Compound 245a, 4-[2-(4-chloro-2-fluorophenyl)-2-methyl-2H-1,3-benzodioxol-4-yl]-1-[(3-{[(2R)-oxolan-2-yl]methyl}-6-[5-(trifluoromethyl)-4H-1,2,4-triazol-3-yl]-3H-imidazo[4,5-b]pyridin-2-yl)methyl]piperidine]
  EC50: 2.6 nM

## C[C@H]1CN(c2ncc(F)c(OCc3ccc(Cl)cc3F)n2)CCN1Cc1nc2cc(-c3nnc(C(F)(F)F)[nH]3)nnc2n1C[C@@H]1CCO1 [Compound 512a, 4-[(4-chloro-2-fluorophenyl)methoxy]-5-fluoro-2-[(3S)-3-methyl-4-[(7-{[(2S)-oxetan-2-yl]methyl}-3-[5-(trifluoromethyl)-4H-1,2,4-triazol-3-yl]-7H-imidazo[4,5-c]pyridazin-6-yl)methyl]piperazin-1-yl]pyrimidine]
  EC50: 0.14 nM

## O=C(Nc1ccc2c(c1)nc(CN1CCC(c3cccc(OCc4ccc(Cl)cc4F)n3)CC1)n2C[C@@H]1CCO1)C1CCCNC1 (stereo partly drawn) [Compound 203a, N-{2-[(4-{6-[(4-chloro-2-fluorophenyl)methoxy]pyridin-2-yl}piperidin-1-yl)methyl]-1-{[(2S)-oxetan-2-yl]methyl}-1H-1,3-benzodiazol-5-yl}piperidine-3-carboxamide]
  EC50: 3.2 nM

## COC(=O)Nc1ccc2c(c1)nc(CN1CCC(c3cccc(OCc4ccc(Cl)cc4F)n3)CC1)n2C[C@@H]1CCO1 [Compound 146a, methyl N-{2-[(4-{6-[(4-chloro-2-fluorophenyl)methoxy]pyridin-2-yl}piperidin-1-yl)methyl]-1-{[(2S)-oxetan-2-yl]methyl}-1H-1,3-benzodiazol-5-yl}carbamate]
  EC50: 0.49 nM

## Fc1cc(Cl)ccc1COc1cccc(C2CCN(Cc3nc4cc(-c5nnc(C(F)(F)F)[nH]5)nnc4n3C[C@@H]3CCO3)CC2)n1 [Compound 486a, 2-[(4-chloro-2-fluorophenyl)methoxy]-6-{1-[(7-{[(2S)-oxetan-2-yl]methyl}-3-[5-(trifluoromethyl)-4H-1,2,4-triazol-3-yl]-7H-imidazo[4,5-c]pyridazin-6-yl)methyl]piperidin-4-yl}pyridine]
  EC50: 0.038 nM
